Assay results from BindingDB's records for patent US20250313563 (The Broad Institute, 2025).

Assays:
[1] = target: Glycogen synthase kinase-3 alpha (Homo sapiens, UniProt P49840); assay: TR-FRET Assay
Method in brief: (§1)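 Signal is measured as TR-FRET between a terbium anti-phospho-Ser641 antibody and streptavidin-d2, added after an EDTA quench. Compounds are preincubated 30 min in assay buffer.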

[2] = target: Glycogen synthase kinase-3 beta (Homo sapiens, UniProt P49841); assay: TR-FRET Assay
Chain of Glycogen synthase kinase-3 beta (P49841 whole entry): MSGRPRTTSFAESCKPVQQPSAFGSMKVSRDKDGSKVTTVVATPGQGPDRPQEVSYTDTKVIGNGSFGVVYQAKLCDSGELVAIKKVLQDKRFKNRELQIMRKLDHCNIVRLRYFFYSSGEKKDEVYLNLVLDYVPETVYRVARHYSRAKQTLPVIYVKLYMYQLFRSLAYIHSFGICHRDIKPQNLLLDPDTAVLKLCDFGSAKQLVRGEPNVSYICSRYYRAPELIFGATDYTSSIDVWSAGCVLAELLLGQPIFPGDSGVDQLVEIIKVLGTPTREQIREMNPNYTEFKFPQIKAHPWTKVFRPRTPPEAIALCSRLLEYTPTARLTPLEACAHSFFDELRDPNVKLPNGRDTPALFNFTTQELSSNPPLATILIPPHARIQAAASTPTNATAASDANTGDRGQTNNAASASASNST
Method in brief: as §1

Chain of Glycogen synthase kinase-3 alpha (P49840 whole entry): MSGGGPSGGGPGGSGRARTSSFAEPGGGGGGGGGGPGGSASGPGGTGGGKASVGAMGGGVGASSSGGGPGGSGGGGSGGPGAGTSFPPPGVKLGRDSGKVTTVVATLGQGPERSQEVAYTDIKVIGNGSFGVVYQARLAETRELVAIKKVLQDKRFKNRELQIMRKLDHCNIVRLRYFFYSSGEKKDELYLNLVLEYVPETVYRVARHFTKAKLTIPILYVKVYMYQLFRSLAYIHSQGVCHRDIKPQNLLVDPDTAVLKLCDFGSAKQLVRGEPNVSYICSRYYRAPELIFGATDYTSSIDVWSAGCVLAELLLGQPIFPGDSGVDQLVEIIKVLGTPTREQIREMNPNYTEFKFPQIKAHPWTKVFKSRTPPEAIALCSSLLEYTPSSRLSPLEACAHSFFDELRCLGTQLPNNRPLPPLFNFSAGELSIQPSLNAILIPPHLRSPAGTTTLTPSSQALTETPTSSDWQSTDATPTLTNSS

| SMILES | IC50 [1] [nM] | IC50 [2] [nM] |
| --- | --- | --- |
| CCC1(c2cccc(-c3ccnc(OC)c3C)c2)C2=CN=NC2NC2=C1C(=O)CC(C)(C)C2 (stereo unspecified) [US20250313563, Compound 932628] | < 100 | 100 to 1000 |
| CCC1(c2cccc(-c3ccnc(OC(F)F)c3)c2)C2=CN=NC2NC2=C1C(=O)CC(C)(C)C2 (stereo unspecified) [US20250313563, Compound 932629] | < 100 | 100 to 1000 |
| CCC1(c2cccc(-c3cc(OC)ncc3F)c2)C2=CN=NC2NC2=C1C(=O)CC(C)(C)C2 (stereo unspecified) [US20250313563, Compound 932630] | < 100 | < 100 |
| CCC1(c2cccc(-c3ccnc4ccccc34)c2)C2=CN=NC2NC2=C1C(=O)CC(C)(C)C2 (stereo unspecified) [US20250313563, Compound 932631] | < 100 | < 100 |
| CC1(C)CC(=O)C2=C(C1)NC1N=NC=C1C21CCCN(S(=O)(=O)Cc2ccccc2)CC1 (stereo unspecified) [US20250313563, Compound 932632] | < 100 | 100 to 1000 |
| CC1(C)CC(=O)C2=C(C1)NC1N=NC=C1C21CCCN(c2ccncc2)CC1 (stereo unspecified) [US20250313563, Compound 932633] | > 5000 | > 5000 |
| CCC1(c2cccc(N(C)c3ccc(C(F)(F)F)nc3)c2)C2=CN=NC2NC2=C1C(=O)CC(C)(C)C2 (stereo unspecified) [US20250313563, Compound 932634] | < 100 | 100 to 1000 |
| CC[C@]1(c2cccc(N3CCOc4ccccc43)c2)C2=CN=NC2NC2=C1C(=O)CC(C)(C)C2 (stereo partly specified) [US20250313563, Compound 932635] | > 5000 | > 5000 |
| CC[C@]1(c2cccc(N(C)c3cccc(F)n3)c2)C2=CN=NC2NC2=C1C(=O)CC(C)(C)C2 (stereo partly specified) [US20250313563, Compound 932636] | < 100 | < 100 |
| CC[C@@]1(c2cccc(-c3ccnc(C)c3)c2)C2=CN=NC2NC2=C1C(=O)C[C@H](C)C2 (stereo partly specified) [US20250313563, Compound 932638] | > 5000 | > 5000 |
| CC1(C)CC(=O)C2=C(C1)NC1=C(CN=N1)[C@@]21CCCN(S(=O)(=O)C2CC2)CC1 [US20250313563, Compound 932639] | < 100 | 100 to 1000 |
| Cn1ccc(S(=O)(=O)N2CCC[C@]3(CC2)C2=CN=NC2NC2=C3C(=O)CC(C)(C)C2)n1 (stereo partly specified) [US20250313563, Compound 932640] | < 100 | < 100 |
| COc1ccc(S(=O)(=O)N2CCC[C@]3(CC2)C2=CN=NC2NC2=C3C(=O)CC(C)(C)C2)cc1 (stereo partly specified) [US20250313563, Compound 932641] | < 100 | 100 to 1000 |
| CC[C@]1(c2cccc(N3CCOc4ncccc43)c2)C2=CN=NC2NC2=C1C(=O)CC(C)(C)C2 (stereo partly specified) [US20250313563, Compound 932643] | 100 to 1000 | 1000 to 5000 |
| CC[C@]1(c2cccc(N(C)c3cccc(C)n3)c2)C2=CN=NC2NC2=C1C(=O)CC(C)(C)C2 (stereo partly specified) [US20250313563, Compound 932644] | > 5000 | > 5000 |
| CC[C@]1(c2cccc(N(C)c3ccnc(C)c3)c2)C2=CN=NC2NC2=C1C(=O)CC(C)(C)C2 (stereo partly specified) [US20250313563, Compound 932645] | 100 to 1000 | 1000 to 5000 |
| CC[C@]1(c2cccc(N(C)c3cccc(OC)n3)c2)C2=CN=NC2NC2=C1C(=O)CC(C)(C)C2 (stereo partly specified) [US20250313563, Compound 932646] | > 5000 | > 5000 |
| CC[C@]1(c2cccc(N(C)c3ccc(F)nc3)c2)C2=CN=NC2NC2=C1C(=O)CC(C)(C)C2 (stereo partly specified) [US20250313563, Compound 932647] | < 100 | 100 to 1000 |
| Cn1nccc1S(=O)(=O)N1CC2(C1)C1=C(N=NC1)NC1=C2C(=O)CC(C)(C)C1 [US20250313563, Compound 932648] | < 100 | < 100 |
| Cn1nccc1S(=O)(=O)N1CCC2(CC1)C1=C(N=NC1)NC1=C2C(=O)CC(C)(C)C1 [US20250313563, Compound 932649] | < 100 | < 100 |

Now from value to compound:

| IC50 [1] [nM] | IC50 [2] [nM] | SMILES |
| --- | --- | --- |
| > 5000 | > 5000 | CC(C)N1CC2(C1)C1=C(N=NC1)NC1=C2C(=O)CC(C)(C)C1 [US20250313563, Compound 932650] |
| > 5000 | > 5000 | CC1(C)CC(=O)C2=C(C1)NC1=C(CN=N1)C21CN(C2CCOCC2)C1 [US20250313563, Compound 932651] |
| > 5000 | > 5000 | Cn1ccc(CN2CC3(C2)C2=C(N=NC2)NC2=C3C(=O)CC(C)(C)C2)n1 [US20250313563, Compound 932652] |
| 1000 to 5000 | > 5000 | Cn1nccc1CN1CC2(C1)C1=C(N=NC1)NC1=C2C(=O)CC(C)(C)C1 [US20250313563, Compound 932653] |
| > 5000 | > 5000 | CC1(C)CC(=O)C2=C(C1)NC1=C(CN=N1)C21CN(Cc2cnc3ccccn23)C1 [US20250313563, Compound 932654] |
| < 100 | < 100 | CC[C@@]1(c2cccc(N3CCOc4ccccc43)c2)C2=CN=NC2NC2=C1C(=O)CC(C)(C)C2 (stereo partly specified) [US20250313563, Compound 932655] |
| > 5000 | > 5000 | CC[C@@]1(c2cccc(N(C)c3cccc(C)n3)c2)C2=CN=NC2NC2=C1C(=O)CC(C)(C)C2 (stereo partly specified) [US20250313563, Compound 932656] |
| < 100 | 1000 to 5000 | CC[C@@]1(c2cccc(-c3ccnc(C)c3)c2)C2=CN=NC2NC2=C1C(=O)C[C@H](C)C2 (stereo partly specified) [US20250313563, Compound 932657] |
| < 100 | 100 to 1000 | CC[C@]1(c2cccc(-c3ccnc(C)c3)c2)C2=CN=NC2NC2=C1C(=O)N[C@@H](C)C2 (stereo partly specified) [US20250313563, Compound 932658] |
| < 100 | 100 to 1000 | CC1(C)CC(=O)C2=C(C1)NC1=C(CN=N1)[C@]21CCCN(S(=O)(=O)C2CC2)CC1 [US20250313563, Compound 932659] |
| < 100 | 100 to 1000 | Cn1ccc(S(=O)(=O)N2CCC[C@@]3(CC2)C2=CN=NC2NC2=C3C(=O)CC(C)(C)C2)n1 (stereo partly specified) [US20250313563, Compound 932660] |
| < 100 | 100 to 1000 | COc1ccc(S(=O)(=O)N2CCC[C@@]3(CC2)C2=CN=NC2NC2=C3C(=O)CC(C)(C)C2)cc1 (stereo partly specified) [US20250313563, Compound 932661] |
| > 5000 | > 5000 | CC[C@@]1(c2cccc(N(C)c3ccnc(OC)c3)c2)C2=CN=NC2NC2=C1C(=O)CC(C)(C)C2 (stereo partly specified) [US20250313563, Compound 932662] |
| < 100 | 100 to 1000 | CC[C@@]1(c2cccc(N(C)c3cccc(C)n3)c2)C2=CN=NC2NC2=C1C(=O)CC(C)(C)C2 (stereo partly specified) [US20250313563, Compound 932664] |
| > 5000 | > 5000 | CC[C@@]1(c2cccc(CN(C)c3ccnc(C)c3)c2)C2=CN=NC2NC2=C1C(=O)CC(C)(C)C2 (stereo partly specified) [US20250313563, Compound 932665] |
| < 100 | 100 to 1000 | CC[C@@]1(c2cccc(N(C)c3cccc(OC)n3)c2)C2=CN=NC2NC2=C1C(=O)CC(C)(C)C2 (stereo partly specified) [US20250313563, Compound 932666] |
| > 5000 | > 5000 | CC[C@@]1(c2cccc(CN(C)c3ccc(F)nc3)c2)C2=CN=NC2NC2=C1C(=O)CC(C)(C)C2 (stereo partly specified) [US20250313563, Compound 932667] |
| < 100 | < 100 | COC(=O)C1(c2ccccc2)CC2(C1)C1=C(N=NC1)NC1=C2C(=O)CC(C)(C)C1 (stereo unspecified) [US20250313563, Compound 942366] |
